These results are taken from PMC7859889 (ACS chemical biology, 2020).

The subject of data set [1] is HLA-ABC. The experiment in a line: HLA-ABC immunofluorescence. Format: cell-based, human. The following applies: for Emax / IC50: Homo sapiens; for Emax: read-out: Immunofluorescence Efficacy.
Data set [2] deals with C25cl48 cells. The experiment in a line: IF cell count cytotoxicity. Format: cell-based, human. The following applies: for Cell count Curve class: IF cell count cytotoxicity.
The test system of data set [3] is HLA-B mRNA. The experiment in a line: HLA-B RT-qPCR tertiary assay. Format: cell-based, human. The following applies: for Emax: read-out: RT-qPCR Efficacy; for IC50: read-out: RT-qPCR IC50. (In general: In qPCR the cycle at which signal appears reflects the starting amount.)
Data set [4] relates to type I IFN – MHC class I pathway. The experiment in a line: Average / all assays. It is filed as cell-based, human. As to conditions: for IC50: read-out: Average IC50.
The test system of data set [5] is HLA and ISG genes. In words: Multi Gene RT-qPCR, gene panel. The following applies: 4.0 ng/ml IFN-β plus 50 uM compound, 24 hrs; for effect on HLA and ISG gene expression (in words): C25cl48 cells. It is filed as cell-based, human.
For data set [6] the following is noted: cited from earlier work.
Data set [7] has as its system HLA-B HiBit cells. In words: CellTiter-Glo. The following applies: for IC50: read-out: CTG IC50; for CTG Efficacy: IFN-β = 0%, 92 uM Digitonin = −100% activity. (In general: In ATP-based viability assays light output follows the ATP content of the culture.)
Data set [8] deals with HLA-B HiBit (MHC class I). In words: HLA-B HiBit luminescent reporter assay. As to conditions: for Emax: read-out: HiBit Efficacy; for HiBit Efficacy: 4.0 ng/ml IFN-β, IFN-β = 0%, DMSO alone = −100% activity. For orientation: HiBiT is a short tag that completes a luciferase, so light tracks the accessible tagged protein.
Data set [9] relates to HLA-C. The experiment in a line: Multi Gene RT-qPCR, HLA-C. It is filed as cell-based, human. As to conditions: compared to IFN-β treated cells; 4.0 ng/ml IFN-β plus 50 uM compound, 24 hrs.
The subject of data set [10] is ISG15. In words: Multi Gene RT-qPCR, ISG15. As to conditions: compared to IFN-β treated cells; 4.0 ng/ml IFN-β plus 50 uM compound, 24 hrs. It is filed as cell-based, human.
Data set [11] deals with MX1. In words: Multi Gene RT-qPCR, MX1. As to conditions: compared to IFN-β treated cells; 4.0 ng/ml IFN-β plus 50 uM compound, 24 hrs. It is filed as cell-based, human.
The conditions of data set [12]: cited from earlier work. This is another data set of the same source.
For data set [13] the following is noted: 37.5 and 50 mg b.i.d. ref 43, 44; cited from earlier work.
Data set [14] relates to IFIT1. The experiment in a line: Multi Gene RT-qPCR, IFIT1. It is filed as cell-based, human. The following applies: compared to IFN-β treated cells; 4.0 ng/ml IFN-β plus 50 uM compound, 24 hrs.
Data set [15] has as its system STAT1. In words: Western blot, STAT1 phosphorylation. Format: cell-based, human. The following applies: C25cl48 cells, 0.5 hrs, 4.0 ng/ml IFN-β plus IC95 concentration of compound.
Data set [16] concerns IL-6 stimulation of whole blood. The following applies: IL-6 stimulation of whole blood ref 20; cited from earlier work.
In data set [17] the test system is HLA-A. In words: Multi Gene RT-qPCR, HLA-A. It is filed as cell-based, human. The following applies: 4.0 ng/ml IFN-β plus 50 uM compound, 24 hrs.
Setting [18] is: read-out: Immunofluorescence IC50.
Where [19] appears, read: cytotoxicity, 4.0 ng/ml IFN-β, 24 hours.
Setting [20] is: compared to IFN-β treated cells.
[21] abbreviates: HLA-B mRNA, C25cl48 cells, 4.0 ng/mL IFN-β.
Where [22] appears, read: average of HiBit, Immunofluorescence, RT-qPCR.
Setting [23] is: HLA-B HiBit clone AB-7 cells, 24 hours.

The structures appear in SMILES notation. Entries after “also recorded” stand apart in the source; their conditions may differ. Where a name gives a salt, the structure may show the parent alone. Read-outs that look alike come from different tables or passages of the source.

`CS[C@H]1SC[C@H]2C(=O)N(C)[C@@H](C(C)C)C(=O)OC[C@@H](NC(=O)c3cnc4ccccc4n3)C(=O)N[C@@H](C)C(=O)N(C)[C@@H]1C(=O)N(C)[C@@H](C(C)C)C(=O)OC[C@@H](NC(=O)c1cnc3ccccc3n1)C(=O)N[C@@H](C)C(=O)N2C` [Echinomycin, echinomycin]: the Emax came to 120% in data set [1]; 112% in data set [3] (Homo sapiens); 100% in data set [8] (Homo sapiens, 24 h). For the same compound, the IC50 in data set [1] (setting [18]) stood at 4.1 nM; in data set [3] (Homo sapiens), 3 nM; in data set [4] (Homo sapiens), 6 nM. Moreover, the “Cell count Curve class” value in [2] (C25cl48 cells) came to 4. Moreover, the hill slope entry in data set [4] (concentration-response curves) is on record as “ultrasensitive”. In [5], the “efficacy in reducing all HLA and ISG genes” value was over 99%. The “effect on HLA and ISG gene expression (in words)” value (shortened to “effect … (in words)”) in [5] is “normalized all genes”. Besides, the “adverse effects in Phase I clinical trial” value in [6] was “nausea, vomiting, reversible liver enzyme abnormalities, and allergic reactions”. The “CTG Curve class” value in [7] (setting [19]) is 4.

For `CCc1cnn2c(NCc3ccc[n+]([O-])c3)cc(N3CCCC[C@H]3CCO)nc12` [Dinaciclib, dinaciclib], the Emax worked out at 100% in data set [1]; 117% in data set [3] (Homo sapiens); 100% in [8] (Homo sapiens, 24 h). Further, in [2] (C25cl48 cells), the “Cell count Curve class” value is listed as 4. In addition, the “increase of HLA-C mRNA” value in data set [9] is given as ~ 3.3 fold. Also, the “increase of ISG15 mRNA” value in data set [10] is listed as ~ 3.3 fold. Moreover, in [11], the “increase of MX1 mRNA” value was ~ 3.3 fold. Moreover, in data set [5], the “effect … (in words)” value is “did not decrease any of the other genes tested; also recorded: increased HLA-C, ISG15, and MX1”. The common adverse events entry in data set [12] was “leukopenia, thrombocytopenia, gastrointestinal symptoms, alopecia, and fatigue”. Further, in [7] (setting [19]), the “CTG Curve class” value was found to be 4.

On to `CCN(CC)Cc1ccc2cc(COC(=O)Nc3ccc(C(=O)NO)cc3)ccc2c1` [Givinostat HCl, Givinostat], for which the Emax came to 100% in data set [1]; 100% in data set [3] (Homo sapiens); 82% in [8] (Homo sapiens, 24 h). The values for the IC50 in data set [1] (setting [18]), in data set [3] (Homo sapiens) and in data set [4] (Homo sapiens) were 260 nM, 4100 nM and 1800 nM, respectively. The “Cell count Efficacy at highest concentration” value in data set [2] is “(25) %”. In addition, the “Cell count Curve class” value in [2] (C25cl48 cells) is listed as −3. In data set [5], the “efficacy in reducing all HLA and ISG genes” value is reported as 70–80%. In data set [5], the “effect … (in words)” value was “normalized HLA-A and -B to DMSO levels”. In addition, in data set [5] (setting [20]), the “decrease of ISGs (IFIT1, ISG15, MX1)” value is ~ 90%. In addition, the “safety signal at higher doses” value in data set [13] is listed as “platelet count decrease”. The “CTG Efficacy at highest concentration” value in data set [7] was “(18) %”. For the same compound, the “CTG Curve class” value in [7] (setting [19]) is recorded as −3.

For `COc1ccc(-c2nc(N3CCOCC3)c3sc(CN(C)c4ncc(C(=O)NO)cn4)cc3n2)cn1` [CUDC-907], the Emax in data set [1] was 100%; in [3] (Homo sapiens), 73%; in [8] (Homo sapiens, 24 h), 86%. Also, the IC50 amounted to 5.8 nM in data set [1] (setting [18]); 23 nM in data set [3] (Homo sapiens); 19 nM in data set [4] (Homo sapiens); 3500 nM in [7] (Homo sapiens, 24 h). The “Cell count Efficacy at highest concentration” value in data set [2] is “(10) %”. The “Cell count Curve class” value in data set [2] (C25cl48 cells) is on record as −3. Besides, in data set [9], the “decrease of HLA-C mRNA” value is reported as ~ 75%. Moreover, the “decrease of IFIT1 mRNA” value in data set [14] was ~ 75%. For the same compound, the “decrease of MX1 mRNA” value in [11] is ~ 75%. In addition, the “efficacy in reducing all HLA and ISG genes” value in [5] was 70–80%. Further, the “effect … (in words)” value in data set [5] was “reduced 3 genes”. The “CTG Curve class” value in data set [7] (setting [19]) is −1b. Moreover, in data set [7] (cytotoxicity), the “CTG Efficacy” value is 40%.

Take `Cc1sc2c(c1C)C(c1ccc(Cl)cc1)=N[C@@H](CC(=O)Nc1ccc(OCCOCCOCCOCCNc3cccc4c3C(=O)N(C3CCC(=O)NC3=O)C4=O)cc1)c1nnc(C)n1-2` (stereo partly shown) [ARV-825]: the “Immunofluorescence Efficacy” value in data set [1] (HLA-ABC+ C25cl48 cells, IFN-β-stimulated, prednisolone acetate used for IF) was determined as 82%. Also, the “Cell count Curve class” value in [2] (C25cl48 cells) amounted to 4. In data set [3] (setting [21]), the “RT-qPCR Curve class” value was −1b, the “RT-qPCR Efficacy” value was 43% and the IC50 stood at 65 nM. For the same compound, in data set [4] (setting [22]), the “Average Curve class” value is listed as −1b, the “Average Efficacy” value came to 65% and the IC50 amounted to 84 nM. For the same compound, the “decrease of IFIT1 mRNA” value in data set [14] was 84%. Further, the “increase of ISG15 mRNA” value in data set [10] is listed as 2.8 fold. Besides, in data set [5], the “efficacy in reducing all HLA and ISG genes” value was “low efficacy”; the “effect … (in words)” value is on record as “reduced IFIT1 while increasing ISG15”. Also, in [7] (setting [19]), the “CTG Curve class” value is listed as −1b and the IC50 came out at 53 nM. The “CTG Efficacy” value in data set [7] (cytotoxicity) stood at 8%. Also, in data set [8] (setting [23]), the “HiBit Efficacy” value was determined as 71%. In data set [8] (read-out: HiBit IC50, HLA-B HiBit clone AB-7 cells, 4.0 ng/ml IFN-β plus compound titration, 24 hours), the IC50 turned out to be 97 nM.

For the compound `N#CC[C@H](C1CCCC1)n1cc(-c2ncnc3[nH]ccc23)cn1` [Ruxolitinib, ruxolitinib], the IC50 is 3500 nM in data set [1] (48 h, read-out: IC50, HLA-ABC+ cells control titration); 880 nM in [1] (setting [18]); 1600 nM in data set [3] (Homo sapiens); 1200 nM in data set [4] (Homo sapiens); 282 ± 54 nM in [16]; 1100 nM in data set [8] (Homo sapiens, 24 h, read-out: HiBit IC50). In addition, the IC50 in [8] (Homo sapiens, 24 h, read-out: IC50, HiBit control titration) came to 340 ± 36 nM. Further, the Emax in data set [1] came to 100%; in [3] (Homo sapiens), 115%. The “cell count response in control titrations” value in data set [2] (C25cl48 cells, 48 hrs) was “bell shaped viability curve”. Further, the “Cell count Curve class” value in data set [2] (C25cl48 cells) is 4. Moreover, the “phosphorylation of STAT1” value in [15] is “prevented phosphorylation of STAT1”. Moreover, in [7] (HLA-B HiBit cells, 24 hrs), the “CTG viability response in control titrations” value is “slight bell-shaped curve”. Moreover, in data set [7] (setting [19]), the “CTG Curve class” value came to 4. In data set [8] (setting [23]), the “HiBit Efficacy” value is 100%.

In the case of `Cc1[nH]c2ccccc2c1CCNCc1ccc(/C=C/C(=O)NO)cc1` [Panobinostat, panobinostat], the Emax in [1] was 111%; in [3] (Homo sapiens), 68%; in [8] (Homo sapiens, 24 h), 86%. Besides, the IC50 stood at 28 nM in data set [1] (setting [18]), 29 nM in data set [3] (Homo sapiens) and 40 nM in data set [4] (Homo sapiens). In addition, in data set [2] (C25cl48 cells), the “Cell count Curve class” value is 4. In addition, the “potency relative to givinostat at inhibiting IFN-β-MHC class I pathway” value in data set [4] was determined as 45 x. In addition, the “effect on HLA-A mRNA” value in data set [17] is reported as “no effect”. The “efficacy in reducing all HLA and ISG genes” value in [5] is given as 70–80%. In addition, in data set [5] (setting [20]), the “decrease of all genes tested except HLA-A” value is ~ 80%. The “CTG Efficacy at highest concentration” value in [7] was “(25) %”. Moreover, the “CTG Curve class” value in data set [7] (setting [19]) is on record as −3.
